Test results reported in ChEMBL document CHEMBL1201862, “PubChem BioAssay data set” (2004).
Activity calls are given as the source filed them.

Legend:
CAAX prenyl protease 2 [1] = target: T1, CAAX prenyl protease 2 (Saccharomyces cerevisiae S288c, UniProt Q03530); format: biochemical
T1 sequence (Q03530 whole entry): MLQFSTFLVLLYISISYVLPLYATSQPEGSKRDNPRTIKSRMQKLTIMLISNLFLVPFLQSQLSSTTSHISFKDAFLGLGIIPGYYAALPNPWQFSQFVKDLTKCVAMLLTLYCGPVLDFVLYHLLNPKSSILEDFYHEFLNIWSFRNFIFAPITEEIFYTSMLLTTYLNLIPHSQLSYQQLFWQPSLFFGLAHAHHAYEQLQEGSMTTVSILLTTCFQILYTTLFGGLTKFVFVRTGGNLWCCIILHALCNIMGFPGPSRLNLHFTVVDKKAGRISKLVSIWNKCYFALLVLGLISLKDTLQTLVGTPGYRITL

CAAX prenyl protease 2 [2] = target: T2, CAAX prenyl protease 2 (Homo sapiens, UniProt Q9Y256); assay: human Rce1 protease inhibitors, dose response, biochemical, yeast membranes, quenched-peptide fluorescence, cherry-pick (AID 588849)
T2 sequence (Q9Y256 whole entry): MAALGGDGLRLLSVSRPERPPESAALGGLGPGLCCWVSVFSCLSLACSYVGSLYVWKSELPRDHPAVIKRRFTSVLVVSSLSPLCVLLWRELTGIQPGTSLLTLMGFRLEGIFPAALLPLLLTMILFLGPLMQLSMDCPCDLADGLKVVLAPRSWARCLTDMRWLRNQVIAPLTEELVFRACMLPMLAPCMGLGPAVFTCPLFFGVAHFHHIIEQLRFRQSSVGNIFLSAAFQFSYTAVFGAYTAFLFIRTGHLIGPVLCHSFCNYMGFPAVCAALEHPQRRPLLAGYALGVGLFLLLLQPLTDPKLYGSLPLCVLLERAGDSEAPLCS

[3] = target: T3, Ubiquitin-conjugating enzyme E2 N (Homo sapiens, UniProt P61088); format: functional
T3 sequence (P61088 whole entry): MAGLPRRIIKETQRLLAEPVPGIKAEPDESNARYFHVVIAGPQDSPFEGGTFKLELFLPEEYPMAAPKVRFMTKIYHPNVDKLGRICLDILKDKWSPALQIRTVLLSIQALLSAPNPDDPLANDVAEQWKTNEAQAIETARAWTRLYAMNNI

Bcl-2-related protein A1 = target: T4, Bcl-2-related protein A1 (Mus musculus, UniProt Q07440); format: functional;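 note: confirmatory dose–response counterscreen on Bfl-1, used to check hits from a UBC13 polyubiquitin inhibitor campaign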
T4 sequence (Q07440 whole entry): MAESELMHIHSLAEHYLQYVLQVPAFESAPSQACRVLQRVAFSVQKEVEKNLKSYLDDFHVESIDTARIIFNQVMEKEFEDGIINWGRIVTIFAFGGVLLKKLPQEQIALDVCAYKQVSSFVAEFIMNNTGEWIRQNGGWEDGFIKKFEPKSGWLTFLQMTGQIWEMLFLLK

[4] = target: T3, Ubiquitin-conjugating enzyme E2 N; format: functional; remark: listed apart in the source
[5] = target: Alkaline phosphatase, placental type (Homo sapiens, UniProt P05187); assay: PLAP enzyme inhibitors, confirmation, biochemical, luminescence (AID 1512); format: functional
Chain of Alkaline phosphatase, placental type (P05187 whole entry): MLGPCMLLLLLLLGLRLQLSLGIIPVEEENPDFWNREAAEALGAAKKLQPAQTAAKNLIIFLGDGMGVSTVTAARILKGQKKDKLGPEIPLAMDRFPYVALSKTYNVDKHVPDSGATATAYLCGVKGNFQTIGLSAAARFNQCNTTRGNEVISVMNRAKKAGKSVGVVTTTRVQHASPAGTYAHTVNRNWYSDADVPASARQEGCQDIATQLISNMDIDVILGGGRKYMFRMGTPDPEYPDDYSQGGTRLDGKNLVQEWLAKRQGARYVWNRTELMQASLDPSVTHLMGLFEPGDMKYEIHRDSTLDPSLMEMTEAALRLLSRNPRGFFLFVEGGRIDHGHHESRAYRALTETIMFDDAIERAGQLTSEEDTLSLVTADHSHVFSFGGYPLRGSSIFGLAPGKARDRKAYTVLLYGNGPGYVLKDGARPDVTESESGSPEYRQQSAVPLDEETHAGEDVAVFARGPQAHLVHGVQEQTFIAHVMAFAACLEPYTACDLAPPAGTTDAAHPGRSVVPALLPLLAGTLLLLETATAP

[6] = Vero cell cytotoxicity, dose response, cytotoxicity control for Vif-APOBEC3G degradation inhibitor project, Vero cells (AID 1117358); format: functional; conditions: Human immunodeficiency virus 1, Vero
[7] = target: Glyceraldehyde-3-phosphate dehydrogenase (Homo sapiens, UniProt P04406)
Chain of Glyceraldehyde-3-phosphate dehydrogenase (P04406 whole entry): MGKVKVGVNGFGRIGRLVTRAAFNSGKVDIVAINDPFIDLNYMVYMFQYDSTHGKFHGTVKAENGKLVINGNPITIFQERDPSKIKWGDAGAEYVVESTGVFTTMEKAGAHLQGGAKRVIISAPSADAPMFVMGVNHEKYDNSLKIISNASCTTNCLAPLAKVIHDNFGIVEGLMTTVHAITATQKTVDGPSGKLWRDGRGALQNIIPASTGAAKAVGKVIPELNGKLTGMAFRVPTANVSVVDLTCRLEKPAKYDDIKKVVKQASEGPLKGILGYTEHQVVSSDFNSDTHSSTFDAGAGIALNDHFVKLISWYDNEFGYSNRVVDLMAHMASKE

[8] = inhibitors of Vif binding to APOBEC3G peptide, primary screen, biochemical, TR-FRET, GST-Vif 1-94, biotin-A3G peptide, dose response retest (AID 1117319); format: functional;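 note: TR-FRET signal of purified GST-Vif binding a biotinylated A3G peptide; inhibitors lower the FRET signal by blocking Vif and A3G binding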
[9] = target: 26S proteasome non-ATPase regulatory subunit 14 (Homo sapiens, UniProt O00487); assay: inhibition of proteasome subunit RPN11 – biochemical, fluorescence polarization, uHTS hits, confirmation (AID 602368); format: functional
Chain of 26S proteasome non-ATPase regulatory subunit 14 (O00487 whole entry): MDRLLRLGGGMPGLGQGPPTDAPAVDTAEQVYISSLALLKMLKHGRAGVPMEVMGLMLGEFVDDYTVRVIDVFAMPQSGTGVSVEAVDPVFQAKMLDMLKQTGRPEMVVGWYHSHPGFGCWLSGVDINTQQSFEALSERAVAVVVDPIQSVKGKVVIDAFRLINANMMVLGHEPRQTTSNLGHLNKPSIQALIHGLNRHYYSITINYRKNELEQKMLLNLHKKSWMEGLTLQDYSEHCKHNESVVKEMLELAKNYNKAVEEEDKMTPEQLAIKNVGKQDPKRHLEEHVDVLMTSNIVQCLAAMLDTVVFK

Large T antigen = Large T antigen (Simian virus 40, UniProt P03070); format: functional, Betapolyomavirus macacae;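 note: Confirmatory-stage PubChem screen for compounds that inhibit SV40 T antigen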
Chain of Large T antigen (P03070 whole entry): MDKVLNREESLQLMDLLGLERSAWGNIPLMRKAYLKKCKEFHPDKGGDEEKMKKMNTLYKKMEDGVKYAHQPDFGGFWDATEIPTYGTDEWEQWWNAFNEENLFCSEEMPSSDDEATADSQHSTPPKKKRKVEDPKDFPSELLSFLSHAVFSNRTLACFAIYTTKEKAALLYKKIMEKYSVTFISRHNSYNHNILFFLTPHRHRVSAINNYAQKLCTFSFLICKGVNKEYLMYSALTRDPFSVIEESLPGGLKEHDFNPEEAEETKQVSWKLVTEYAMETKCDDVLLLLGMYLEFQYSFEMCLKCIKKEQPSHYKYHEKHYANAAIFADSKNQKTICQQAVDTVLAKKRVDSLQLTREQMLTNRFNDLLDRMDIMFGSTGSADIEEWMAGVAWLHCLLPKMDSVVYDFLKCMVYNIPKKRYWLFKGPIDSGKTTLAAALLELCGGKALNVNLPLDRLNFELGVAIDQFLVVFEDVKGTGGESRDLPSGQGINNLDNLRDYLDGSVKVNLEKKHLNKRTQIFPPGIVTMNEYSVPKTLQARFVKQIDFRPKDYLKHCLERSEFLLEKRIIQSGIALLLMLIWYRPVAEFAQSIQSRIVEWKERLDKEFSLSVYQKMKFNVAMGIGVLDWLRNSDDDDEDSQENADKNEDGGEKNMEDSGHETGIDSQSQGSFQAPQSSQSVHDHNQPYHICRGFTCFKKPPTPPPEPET

Streptococcus = assay: Group A Streptococcus viability loss, dose response, counter-screen for streptokinase expression inhibitor project, luminescence, BacTiterGlo (AID 1915); format: functional, organism-based;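 note: potency for reduction of bacterial viability or growth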
Prothrombin = Prothrombin (Bos taurus, UniProt P00735); assay: thrombin inhibition, dose response, biochemical, fluorescence polarization, uHTS hits (AID 602369); format: functional
[10] = target: T5, Bifunctional protein GlmU (Mycobacterium tuberculosis, UniProt P9WMN3); assay: Inhibitors of Mycobacterial Glucosamine-1-phosphate acetyl transferase (GlmU). Secondary screen.; set-up: species or system Mycobacterium tuberculosis H37Rv
T5 sequence (P9WMN3 whole entry): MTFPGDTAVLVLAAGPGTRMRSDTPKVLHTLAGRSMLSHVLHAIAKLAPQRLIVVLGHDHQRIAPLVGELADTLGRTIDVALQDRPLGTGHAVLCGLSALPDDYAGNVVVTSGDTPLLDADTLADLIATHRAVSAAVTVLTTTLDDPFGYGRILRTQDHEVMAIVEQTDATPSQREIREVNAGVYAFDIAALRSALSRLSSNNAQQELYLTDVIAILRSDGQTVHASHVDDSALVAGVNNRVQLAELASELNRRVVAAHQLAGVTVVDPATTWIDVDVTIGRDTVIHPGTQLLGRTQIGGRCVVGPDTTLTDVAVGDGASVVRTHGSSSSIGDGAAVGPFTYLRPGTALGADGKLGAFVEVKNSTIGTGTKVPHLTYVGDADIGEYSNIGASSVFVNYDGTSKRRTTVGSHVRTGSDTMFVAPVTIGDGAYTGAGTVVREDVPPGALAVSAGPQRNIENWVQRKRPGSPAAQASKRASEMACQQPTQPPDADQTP

[11] = target: Induced myeloid leukemia cell differentiation protein Mcl-1 (Homo sapiens, UniProt Q07820); format: functional
Chain of Induced myeloid leukemia cell differentiation protein Mcl-1 (Q07820 whole entry): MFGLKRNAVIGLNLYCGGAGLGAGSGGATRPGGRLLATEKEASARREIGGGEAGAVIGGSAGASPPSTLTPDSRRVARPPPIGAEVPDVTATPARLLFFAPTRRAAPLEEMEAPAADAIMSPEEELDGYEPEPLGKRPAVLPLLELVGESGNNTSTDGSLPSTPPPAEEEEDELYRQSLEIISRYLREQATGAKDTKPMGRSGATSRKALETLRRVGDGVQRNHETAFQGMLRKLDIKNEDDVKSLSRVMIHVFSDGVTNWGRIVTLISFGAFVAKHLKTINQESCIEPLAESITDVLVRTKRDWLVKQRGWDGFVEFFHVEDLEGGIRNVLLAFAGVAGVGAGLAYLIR

[12] = target: Dual specificity tyrosine-phosphorylation-regulated kinase 1A (Rattus norvegicus, UniProt Q63470); format: biochemical, Homo sapiens
[13] = target: G-protein coupled receptor 35 (Homo sapiens, UniProt Q9HC97); assay: GPR35 antagonists blocking zaprinast-driven arrestin recruitment, primary screen, imaging, U2OS, beta-arrestin-GFP, zaprinast agonist (AID 2058); format: functional;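 note: antagonist potency meaning inhibition of agonist-induced arrestin redistribution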
Chain of G-protein coupled receptor 35 (Q9HC97 whole entry): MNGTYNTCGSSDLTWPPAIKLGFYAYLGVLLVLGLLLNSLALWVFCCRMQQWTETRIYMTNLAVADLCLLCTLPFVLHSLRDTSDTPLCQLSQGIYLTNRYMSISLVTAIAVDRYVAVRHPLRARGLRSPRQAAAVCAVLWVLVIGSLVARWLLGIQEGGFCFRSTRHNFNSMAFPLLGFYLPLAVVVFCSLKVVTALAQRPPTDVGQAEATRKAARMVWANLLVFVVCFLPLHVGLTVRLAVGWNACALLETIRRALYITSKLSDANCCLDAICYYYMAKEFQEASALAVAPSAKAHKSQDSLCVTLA

[14] = target: 72 kDa type IV collagenase (Homo sapiens, UniProt P08253); assay: Dose Response validation of uHTS RPN11 inhibitor hits using a MMP-2 Fluorescence assay.; format: functional
Chain of 72 kDa type IV collagenase (P08253 whole entry): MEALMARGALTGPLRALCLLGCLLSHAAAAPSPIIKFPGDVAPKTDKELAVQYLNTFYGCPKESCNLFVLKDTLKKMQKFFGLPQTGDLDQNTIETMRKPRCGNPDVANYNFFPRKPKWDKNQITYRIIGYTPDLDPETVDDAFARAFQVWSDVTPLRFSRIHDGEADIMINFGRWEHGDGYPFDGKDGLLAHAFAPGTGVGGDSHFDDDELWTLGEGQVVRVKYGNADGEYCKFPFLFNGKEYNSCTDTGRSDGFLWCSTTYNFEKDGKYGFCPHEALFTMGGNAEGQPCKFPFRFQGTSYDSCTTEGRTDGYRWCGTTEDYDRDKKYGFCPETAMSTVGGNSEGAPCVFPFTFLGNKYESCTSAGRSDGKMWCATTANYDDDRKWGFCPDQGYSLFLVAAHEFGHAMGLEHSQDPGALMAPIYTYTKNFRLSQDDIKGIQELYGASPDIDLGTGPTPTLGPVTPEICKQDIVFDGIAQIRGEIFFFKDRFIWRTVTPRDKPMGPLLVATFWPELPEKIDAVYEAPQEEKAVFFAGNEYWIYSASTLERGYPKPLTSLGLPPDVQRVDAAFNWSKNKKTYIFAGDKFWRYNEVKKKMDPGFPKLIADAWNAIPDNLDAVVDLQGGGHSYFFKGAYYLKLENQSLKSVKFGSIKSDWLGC

[15] = system: Streptococcus sp. 'group A'; assay: growth inhibition of control SK(-) GAS strain, dose response, counter-screen for streptokinase expression inhibitor project, luminescence, kanamycin, BacTiterGlo, confirmation (AID 1900); format: functional, organism-based
Streptokinase A = target: T6, Streptokinase A (Streptococcus pyogenes serotype M1, UniProt P10520); assay: S. pyogenes streptokinase expression inhibitors, potency, dose response, plasminogen activation absorbance, OD405 (AID 1914); format: functional, Streptococcus pyogenes M1 GAS;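 note: secreted streptokinase activity via plasminogen activation per viability signal from cell pellet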
T6 sequence (P10520 whole entry): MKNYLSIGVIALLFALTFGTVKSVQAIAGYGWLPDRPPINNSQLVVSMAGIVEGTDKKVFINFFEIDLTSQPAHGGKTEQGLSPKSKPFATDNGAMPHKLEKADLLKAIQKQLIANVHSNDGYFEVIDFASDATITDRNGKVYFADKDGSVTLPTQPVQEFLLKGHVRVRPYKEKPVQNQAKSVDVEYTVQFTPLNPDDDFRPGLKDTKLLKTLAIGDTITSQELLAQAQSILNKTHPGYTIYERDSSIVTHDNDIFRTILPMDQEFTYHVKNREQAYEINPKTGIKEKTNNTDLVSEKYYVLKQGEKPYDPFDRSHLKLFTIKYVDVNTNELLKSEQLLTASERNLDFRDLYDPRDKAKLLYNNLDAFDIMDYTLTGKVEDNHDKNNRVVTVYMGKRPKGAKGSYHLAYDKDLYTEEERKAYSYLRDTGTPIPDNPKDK

[16] = target: T7, Alkaline phosphatase, tissue-nonspecific isozyme (Homo sapiens, UniProt P05186); assay: human TNAP enzyme inhibitors, SAR follow-up, biochemical, luminescent, dose response (AID 1056)
T7 sequence (P05186 whole entry): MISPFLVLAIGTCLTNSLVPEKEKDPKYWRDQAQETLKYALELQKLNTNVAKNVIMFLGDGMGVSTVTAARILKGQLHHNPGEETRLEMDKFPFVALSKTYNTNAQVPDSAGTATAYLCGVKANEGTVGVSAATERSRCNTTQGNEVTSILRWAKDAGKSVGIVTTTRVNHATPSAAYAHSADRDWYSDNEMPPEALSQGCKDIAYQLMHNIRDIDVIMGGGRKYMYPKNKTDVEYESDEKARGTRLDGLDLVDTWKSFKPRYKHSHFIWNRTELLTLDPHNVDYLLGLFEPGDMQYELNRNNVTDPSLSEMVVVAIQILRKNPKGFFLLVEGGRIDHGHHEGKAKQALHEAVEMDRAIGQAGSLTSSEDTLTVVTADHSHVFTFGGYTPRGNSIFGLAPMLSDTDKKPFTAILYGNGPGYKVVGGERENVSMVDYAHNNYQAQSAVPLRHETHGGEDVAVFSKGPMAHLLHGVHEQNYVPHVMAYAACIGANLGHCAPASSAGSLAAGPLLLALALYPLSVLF

CC(=O)Oc1ccc(C(=O)Nc2ccc(S(=O)(=O)NCC3CCCO3)cc2)cc1 (stereo unspecified)
AC50 (CAAX prenyl protease 2 [1]): 68.7 µM (active)

CCSc1nc(O)c2c(n1)N=C1CC(C)(C)CC(O)=C1C2c1ccccn1 (stereo unspecified)
AC50 (CAAX prenyl protease 2 [2]): 9.79 µM (active)

Cc1ccc(C)c(S(=O)(=O)c2c[nH]c(=S)[nH]c2=O)c1
IC50 [3]: > 20 µM (inactive)
IC50 (Bcl-2-related protein A1): > 20 µM (inactive)
IC50 [4]: 14.3 µM (active)

O=C1C(Cc2cnc[nH]2)NC(=S)N1c1ccccc1 (stereo unspecified)
IC50 [3]: 4 µM (active)
IC50 (Bcl-2-related protein A1): > 20 µM (inactive)
IC50 [4]: 8.14 µM (active)

CC(C)c1c(C(=O)N/N=C/c2ccsc2)nnn1-c1nonc1N
AC50 (CAAX prenyl protease 2 [1]): 0.343 µM (active)

CCn1nc(C)c(/C=N/NC(=O)c2ccc3c(c2)c(C)c(C)n3Cc2ccccc2)c1C
IC50 [5]: > 100 µM (inactive)

COc1ccc(OC)c(S(=O)(=O)Nc2cnc3ccccc3c2)c1
CC50 [6]: > 40 µM (active)
IC50 [5]: > 100 µM (inactive)
IC50 [7]: > 100 µM (not active)
IC50 [8]: > 100 µM (active)

N=C1/C(=C\c2ccc(-c3cccc(C(=O)O)c3)o2)C(=O)N=C2SC=C(c3ccccc3)N12
IC50 [9]: 7.84 µM (active)
IC50 (Large T antigen): 92.2 µM (active)
EC50 (Streptococcus): 8.79 µM (active)
IC50 (Prothrombin): 15.8 µM (active)
IC50 [10]: 129 µM (active)
IC50 [11]: 1.55 µM (active)
AC50 [12]: 2.19 µM (active)
IC50 [13]: 2.29 µM (active)
IC50 [14]: 9.07 µM (active)
EC50 [15]: 0.743 µM (active)
EC50 (Streptokinase A): > 150 µM (not active)

Cc1cc(SCC(=O)NC(=O)c2cccn2C)nc2ccccc12
IC50 [3]: > 20 µM (inactive)
IC50 (Bcl-2-related protein A1): > 20 µM (inactive)
IC50 [4]: 17.4 µM (active)

COc1ccc(Cc2nc3c4cnn(C)c4ncn3n2)cc1
IC50 [16]: > 100 µM (inactive)
IC50 [5]: > 100 µM (inactive)
IC50 [7]: > 100 µM (not active)
